Results reported in US20070077305A1, “Biocompatible polymeric matrix and preparation thereof” (priority 2005, published 2007).

Experiment: In vitro diffusion test of film using Franz apparatus
Type: in vitro ADME
Settings: after 24 h; from chitosan succinic acid film (DS about 60-80%); phosphate buffer pH 7.2, 32° C.
Experimental: The functionalized chitosan polymeric matrix was synthesized as previously described with a degree of substitution of about 60-80%. 500 mg of caffeine was added in 100 mL functionalized chitosan polymeric matrix solution (2.5%) and stirred during […]. Films were produce by applying 20 mL of the solution evenly onto Petri dishes and dried at room temperature for 24-48 h.
The film produced was subjected to an in vitro diffusion test using Franz apparatus, with an exposed surface area of 3.9 cm^2. Polydimethylsiloxan (Silastic®) membranes have been used as barrier and the receptor compartment (dissolution phase) was 1 L of 50 mM phosphate buffer (pH 7.2) at 32° C. At predetermined time intervals, the samples (5 mL aliquots) were analyzed at 272 nm for the determination of caffeine permeation.

Cn1c(=O)c2c(ncn2C)n(C)c1=O [caffeine]
amount of caffeine in the receptor compartment: 405 μg/cm^2
